Experimental data published in PMC12430133, “GABAergic and α-Glucosidase-Inhibitory Potentials of Fractions and Isolated Xanthones from Hypericum revolutum Vahl subsp. revolutum” (Molecules, 2025).

Experiments:
[1] = biological target: α-glucosidase; experiment: In vitro α-glucosidase-inhibitory assay; format: biochemical
Protocol: The alpha-glucosidase-inhibitory potency of the fractions was assessed by determining whether the fractions can inhibit the activity of α-glucosidase, a carbohydrate-digesting enzyme. The fractions were tested at a concentration of 60 µg/mL.
A previous method [66] was adopted to perform the glucosidase inhibition assay. It was performed on a 96-well transparent plate. […] Next, 50 µL of 10 mM 4-nitrophenyl-β-D-glucopyranoside substrate solution (dissolved in 100 mM phosphate buffer, pH 6.8) was added, and incubation continued for an additional 20 min under the same incubation conditions. After incubation, the enzyme-substrate reaction was stopped by adding 100 µL of a 0.1 M Na2CO3 solution, and absorbance was measured at 405 nm. The absorbances were blanked using the sample and solvent blanks. The enzyme inhibition activity of the samples was computed using the formula below: Enzyme inhibition activity%=Absorbance of control−Absorbance of test/Absorbance of control×100

[2] = biological target: T1, GABAA receptor subtype (α1, β2, and γ2S subunits) (Homo sapiens, UniProt P14867+P18507+P47870); experiment: Functional GABAA receptor assay: modulation of GABA-induced chloride currents (IGABA), two-microelectrode voltage clamp in Xenopus laevis oocytes; format: cell-based; conditions: 100 µg/mL, isolated compounds; for IGABA potentiation: GABA EC10, mean ± S.E.M
T1 construct: expressed in transfected cells; host or cells: Xenopus laevis oocytes (Ecocyte), cRNA-injected
Protocol: The effects of both fractions and isolated compounds from the PS and PL extracts were determined on GABA-induced chloride currents through the predominantly occurring GABAA receptor subtype (comprising α1, β2, and γ2S subunits). GABAA receptors were heterologously expressed in Xenopus laevis (Grade I–II) oocytes as described previously. The fractions and compounds were tested at a concentration of 100 µg/mL. For the fractions, a 100 µg/mL concentration was used in assessing their IGABA modulatory potential because previous studies have also used the same concentration to assess the IGABA modulatory potential of plant extracts and/or fractions in a similar experimental model. For the compounds, we tested their IGABA modulatory potential at 100 µg/mL to maintain a consistent concentration as the fractions, which provides a comparative perspective about the efficacy of the compounds relative to the fractions.
In brief, defolliculated oocytes were obtained from Ecocyte (Dortmund, Germany) and injected with 50–75 nL of nuclease-free water containing a mixture (ratio 1:1:10) of cRNAs encoding for the major GABAA receptor subtype (α1, β2, and γ2S; concentrations ranging between 100 and 2000 ng/μL/subunit) using a Nanoject III microinjector (Drummond Scientific Company, Broomall, PA, USA). Oocytes were stored at 18 °C in ND96 solution composed of 90 mM NaCl, 1 mM KCl, 1 mM MgCl2·6H2O, 1 mM CaCl2, and 5 mM 2-(4-(2-hydroxyethyl)-1-piperazinyl)ethanesulfonic acid (HEPES), with pH adjusted to 7.4 using 1 M NaOH and supplemented with 100 U/mL penicillin and 10 µg/mL streptomycin. Functional characterisation was then carried out 1–3 days post-injection using two-microelectrode voltage-clamp (TEVC) recordings holding oocytes at −70 mV using a TURBO TEC 03C amplifier (NPI Electronic, Tamm, Germany) connected to an Axon Digidata 1440A digitiser (Molecular Devices, Sunnyvale, CA, USA). Data acquisition was performed using pCLAMP software version 10.3 (Molecular Devices), and current traces were analysed offline. Microelectrodes were filled with 2 M KCl and had resistances between 1 and 3 MΩ. GABA and test compounds were applied using a TECAN Miniprep 60 (npi electronic, Tamm, Germany), permitting semi-automation of the experiments coupled to a fast perfusion system. The oocyte-containing chamber was perfused with 200 µL GABA-containing solutions at a volume rate between 150 and 200 µL/s to elicit chloride currents through GABAA receptors (IGABA). Modulation of IGABA by the compounds was measured at a GABA concentration eliciting 10% of the maximal current amplitude (EC10), peak amplitudes were measured, and the effect was calculated using the following formula: IGABA potentiation%=Amplitude IGABA−sample−Amplitude IGABA−control/Amplitude IGABA−control×100
IGABA+Sample is the current induced by co-application of GABA and the tested sample, while IGABA−control is the current induced by application of GABA alone.

T1 sequence (P14867 28-456): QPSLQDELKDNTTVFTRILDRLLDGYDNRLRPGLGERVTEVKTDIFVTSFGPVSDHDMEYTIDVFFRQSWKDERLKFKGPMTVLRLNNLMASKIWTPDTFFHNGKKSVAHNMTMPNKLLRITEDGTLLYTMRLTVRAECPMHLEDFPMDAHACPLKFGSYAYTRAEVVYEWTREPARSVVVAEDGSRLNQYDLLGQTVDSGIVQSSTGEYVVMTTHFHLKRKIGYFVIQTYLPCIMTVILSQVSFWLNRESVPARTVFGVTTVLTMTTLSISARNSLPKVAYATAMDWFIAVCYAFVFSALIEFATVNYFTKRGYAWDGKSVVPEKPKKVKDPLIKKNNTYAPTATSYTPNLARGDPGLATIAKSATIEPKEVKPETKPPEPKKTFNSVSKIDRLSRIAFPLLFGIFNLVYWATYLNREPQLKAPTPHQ
T1 sequence (P47870 25-512 limits assumed): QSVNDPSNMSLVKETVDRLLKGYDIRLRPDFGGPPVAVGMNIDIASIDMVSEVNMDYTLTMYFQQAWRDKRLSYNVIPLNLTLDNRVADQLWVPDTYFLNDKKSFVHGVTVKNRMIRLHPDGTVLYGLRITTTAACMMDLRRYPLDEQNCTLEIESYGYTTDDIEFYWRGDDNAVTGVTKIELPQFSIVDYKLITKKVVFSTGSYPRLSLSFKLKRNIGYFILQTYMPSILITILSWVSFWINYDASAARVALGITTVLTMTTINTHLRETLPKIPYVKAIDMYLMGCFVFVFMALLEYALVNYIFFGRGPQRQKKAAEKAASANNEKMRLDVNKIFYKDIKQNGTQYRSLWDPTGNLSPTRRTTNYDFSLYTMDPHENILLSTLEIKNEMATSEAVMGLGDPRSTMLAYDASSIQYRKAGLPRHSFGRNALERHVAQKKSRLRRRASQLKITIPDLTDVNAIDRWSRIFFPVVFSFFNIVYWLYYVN
T1 sequence (P18507 40-467 isoform P18507-1 limits assumed): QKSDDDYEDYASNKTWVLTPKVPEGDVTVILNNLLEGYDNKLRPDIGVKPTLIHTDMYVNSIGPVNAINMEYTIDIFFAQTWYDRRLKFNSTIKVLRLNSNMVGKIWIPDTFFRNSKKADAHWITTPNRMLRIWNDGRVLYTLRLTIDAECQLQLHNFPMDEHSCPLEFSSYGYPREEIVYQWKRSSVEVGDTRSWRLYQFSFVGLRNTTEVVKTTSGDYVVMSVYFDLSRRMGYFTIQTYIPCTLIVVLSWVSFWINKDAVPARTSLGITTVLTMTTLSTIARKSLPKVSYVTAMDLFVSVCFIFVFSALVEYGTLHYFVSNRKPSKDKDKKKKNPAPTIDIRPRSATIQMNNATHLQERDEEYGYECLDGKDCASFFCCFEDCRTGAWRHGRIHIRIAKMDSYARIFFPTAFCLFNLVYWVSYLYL

SMILES	IC50 ([1]; dose-dependent assay 1.5625–100 µM, isolated compound and acarbose, read-out: α-glucosidase inhibition IC50) [µM]	IGABA potentiation [2] [%]	Effect on IGABA (in words) [2]	Glucosidase-Inhibitory Activity (%) ([1]; tested at 60 μg/mL, fractions from MeOH extract of PS (plant stem) and acarbose, NAD = no activity detected)
COc1cc([C@@H]2Oc3c(OC)cc4c(=O)c5ccccc5oc4c3O[C@H]2CO)ccc1O (relative stereo) [Compound 3, trans-3-(4-hydroxy-3-methoxyphenyl)-2-(hydroxymethyl)-5-methoxy-2,3-dihydro-7H-[1,4]dioxino[2,3-c]xanthen-7-one]	45.1	5 ± 7	inactive	
C[C@H]1O[C@H](O[C@H]2[C@H](O)[C@@H](O)[C@@H](O[C@H]3[C@H](O)[C@@H](O)C(O)O[C@@H]3CO)O[C@@H]2CO)[C@H](O)[C@@H](O)[C@@H]1N[C@H]1C=C(CO)[C@@H](O)[C@H](O)[C@H]1O (some centres unmarked) [Acarbose, acarbose, reference compound]				94.3 ± 1.86
COc1cc2c(=O)c3ccccc3oc2c(O)c1OC [Compound 1, 4-hydroxy-2,3-dimethoxy-9H-xanthen-9-one]		65 ± 13	significantly enhanced IGABA	
COc1cc2c(=O)c3ccccc3oc2c(OC)c1O [Compound 2, 3-hydroxy-2,4-dimethoxy-9H-xanthen-9-one]		36 ± 9	significantly enhanced IGABA	
